Source: patent US6702996B1, “Method for investigating the suitability of a material as a medicament” (Aventis Pharma Deutschland GmbH, priority 1999, dated 2004)

System: C. elegans
Experiment: Retraction reflex of nematodes to a local thermal stimulus (laser, head region)
Assay type: in vivo, Caenorhabditis elegans
Details: for effect on the reflex behaviour of the nematode: nematodes exposed to the substance, local thermal stimulus
Method: The inventors' experiments have thus shown that the use of C. elegans as an animal model for studying materials in terms of their suitability as medicaments in humans or other mammals allows reliable predictions to be made, especially where the sensation or perception of pain is involved, both in terms of algesic or hyperalgesic effects and in terms of analgesic effects. […] A normal reflex to a thermal stimulus of e.g. 32-40° C. in the head region of the nematode can be described as follows:
I) Rapid reflexive retraction by at least one whole body length and subsequent orientation of the head in another direction.
II) Rapid reflexive retraction, but without backward motion.
The well-fed test animals (C. elegans) (about 100; length about 1.3 mm; diameter 80 μm) were irradiated in the experiments with an infrared laser (685±0.5 nm). The laser beam was always focused on a spot of diameter 30 μm in the head region of the animal, a local warming to 33.5±1° C. being observed on an agar surface. To examine the animals' behaviour in greater detail, they were exposed to a nociceptive stimulus, after which they were incubated in capsaicin at concentrations varying from 1 to 100 μM. A strong reaction was still being observed 1 h after incubation.

SMILES: Oc1cc2c(cc1O)CN(C(=S)NCCc1ccc(Cl)cc1)CCC2 [capzazepine]
- effect on the reflex behaviour of the nematode: can be influenced

SMILES: COc1cc(CNC(=O)CCCC/C=C/C(C)C)ccc1O [capsaicin]
- reaction (intensified reflex as in I)) in mutants (C. elegans mutants whose normal behaviour is that only 70% of the animals react as in I)): observed even more clearly
- animals exhibiting a reflex as in I) (rapid reflexive retraction by at least one whole body length) (incubated in capsaicin 1 to 100 μM, 1 h after incubation, laser warming to 33.5±1° C. in head region, control group 80%): over 90%
- effect on the reflex behaviour of the nematode: can be influenced
